Assay results as given in patent publication US9416128B2, “Fused heterocyclic compounds as ion channel modulators” (Gilead Sciences, Inc., priority 2013, dated 2016).

Experiments:
hNaV1.1 (SCN1A) = hNaV1.1 (SCN1A) (Homo sapiens, UniProt P35498); test: Use-dependent inhibition of the CNS NaV1.1 sodium channel; format: cell-based; details: % inhibition, 25 Hz; for inhibition at 1 µM: use-dependent block at 1 uM, read-out: Nav1.1 UDB 25 Hz 1 uM; for inhibition at 10 µM: use-dependent block at 10 uM, read-out: Nav1.1 UDB 25 Hz 10 uM
Description: HEK-293 cells stably expressing wild-type (WT) hNaV1.1 (SCN1A, NCBI# AB09354) were obtained from Millipore (Cat. # CYL3009) were used to record INa. Cells are maintained with standard tissue culture procedures and stable channel expression is maintained with 400 ug/mL G418 in the culture medium. Unless otherwise noted, all reagents are purchased from Sigma-Aldrich (St Louis, Mo., U.S.A.).
Assays measuring Use-Dependent Block (UDB) of NaV1.2 are performed on an automated electrophysiology platform, QPatch 16X or QPatch HT (Sophion Bioscience, Copenhagen, Denmark), using the whole cell patch clamp technique to measure currents through the cell membrane. Series resistance compensation is set to 100% and series resistance and whole-cell compensation are performed automatically. Currents stored in the Sophion Bioscience Oracle database (Sophion Bioscience, Copenhagen, Denmark). Analysis is performed using QPatch Assay software and data are compiled in Excel 2010 (Microsoft, Seattle, Wash., U.S.A.).
The internal (pipette) solution consists of (in mM) 105 CsF, 10 NaF, 20 CsCl, 2 EGTA, 10 HEPES, 10 Dextrose with a pH of 7.35 and osmolarity of 300 mOsmol/kg. The external (bath) solution contains in (mM): 145 NaCl, 4 KCl, 1.8 CaCl2, 1 MgCl2, 10 dextrose, 10 HEPES, with a pH of 7.35 and osmolarity of 310 mOsmol/kg. Experiments are carried out at 23-25° C.
Compound stocks are routinely made by the Gilead Sample Bank in vials to 10 mM in dimethyl sulfoxide (DMSO). In some cases, when compounds are not soluble in DMSO, they are made in 100% ethanol. Stocks are sonicated as necessary. […]
Cells are allowed to stabilize for 10 min after establishment of the whole-cell configuration before current is measured. The test compound is applied 2 times at 60 second intervals. After the second compound addition, a 200 second wait period was imposed to allow for equilibration.
Leak currents are subtracted by using an online P/4 procedure and all currents are low-pass Bessel filtered at 5 kHz and digitized at […].
Use-dependent block of NaV1.2 peak current is measured during pulse number 20 of a voltage pulse train (0 mV, 20 ms, 20 pulses, 25 Hz) from a holding potential of −120 mV. Currents are normalized to the peak current recorded in response to the first pulse in each frequency train. The voltage protocol for UDB was performed in the absence and presence of compound and percentage inhibition was calculated with respect to the compound free condition. Results are presented as mean percentage inhibition and data analysis is performed using QPatch Assay Software 4.0, and Excel 2002 (Microsoft, Seattle, Wash., U.S.A.).

[1] = target: wild-type human cardiac sodium channel, hNaV 1.5 (Late INa) (Homo sapiens, UniProt Q14524); test: Late INa screening assay (whole cell patch clamp, QPatch, Tefluthrin-induced late current); format: cell-based; details: HEK293, % inhibition (percent block of late INa) at 1 uM; HEK293 hNaV1.5; 10 μM Tefluthrin; read-out: Nav1.5 Late INa 1 uM
Description: The cardiac late sodium current (Late INa) and peak sodium current (Peak INa) assays are performed on an automated electrophysiology platform, QPatch 16X or QPatch HT (Sophion Bioscience, Copenhagen, Denmark) using the whole cell patch clamp technique to measure currents through the cell membrane. The assay uses an HEK293 (human embryonic kidney) cell line heterologously expressing the wild-type human cardiac sodium channel, hNaV 1.5, purchased from Millipore (Billerica, Mass.). No beta subunits were coexpressed with the Na channel alpha subunit. Cells are maintained with standard tissue culture procedures and stable channel expression is maintained with 400 μg/mL Geneticin in the culture medium. Experiments are carried out at 23-25° C.
For both the Late INa and Peak INa assays, series resistance compensation is set to 100% and series resistance and whole-cell compensation are performed automatically. Currents are digitized at 25 kHz and low-pass filtered at 5 kHz and stored in the Sophion Bioscience Oracle database (Sophion Bioscience, Copenhagen, Denmark). Analysis is performed using QPatch Assay software and data are compiled in Excel 2010 (Microsoft, Seattle, Wash., U.S.A.).
Compound stocks are routinely made by the Gilead Sample Bank in vials to 10 mM in dimethyl sulfoxide (DMSO). In some cases, when compounds are not soluble in DMSO, they are made in 100% ethanol. Stocks are sonicated as necessary. The extracellular solution for screening Late INa is composed of: 140 mM NaCl, 4 mM KCl, 1.8 mM CaCl2, 1 mM MgCl2, 10 mM HEPES and 10 mM Dextrose with pH adjusted to 7.35 using NaOH. The intracellular solution contains: 105 mM CsF, 20 mM CsCl, 10 NaF, 2 mM EGTA, 10 mM HEPES and 10 mM Dextrose with pH adjusted to 7.35 with CsOH. Compounds are diluted in extracellular solution using a MicroLab Nimbus (Hamilton Robotics, Reno, Nev.) to between 0.3 and 3 μM in glass vials and transferred to glass well plates before robotic addition to the cells. The 0 mM Na extracellular solution (0Na-ECF) used at the end of each experiment for the Late INa and Peak INa assays to measure baseline current contains: 140 Choline-Cl; 4 mM KCl, 1.8 mM CaCl2; 1 mM MgCl2; 10 mM HEPES and 10 mM Dextrose with pH was adjusted to 7.35 with CsOH.
For the Late INa assay, sodium channels are activated every 10 seconds (0.1 Hz) by depolarizing the cell membrane to −20 mV for 250 milliseconds (ms) from a holding potential of −120 mV.
Compounds were tested to determine their activity in blocking the late sodium current. Late INa was generated by adding 10 μM Tefluthrin (pyrethroid) to the extracellular solution. For the purposes of the screening, Late INa is defined as the mean current between 240 ms and 265 ms during the voltage step to −20 mV. After establishing the whole cell recording configuration, Late INa activator is added to each well 4 times over a 15 minute period so that the late component of the Na current reaches a stable value. Compounds were then added (typically at 0.3 or 1 μM), in the presence of the Late INa activator, with 3 additions over the course of 5 minutes. Measurements were made at the end of exposure to the third compound addition and values were normalized to the current level when all Na^+ was removed from the extracellular solution after two additions of 0Na-ECF.
Results are reported as percent block of late INa and results were analyzed by incorporating rundown correction for the Late INa.

wild-type human cardiac sodium channel, hNaV 1.5 (Late INa), sequence (Q14524 whole entry): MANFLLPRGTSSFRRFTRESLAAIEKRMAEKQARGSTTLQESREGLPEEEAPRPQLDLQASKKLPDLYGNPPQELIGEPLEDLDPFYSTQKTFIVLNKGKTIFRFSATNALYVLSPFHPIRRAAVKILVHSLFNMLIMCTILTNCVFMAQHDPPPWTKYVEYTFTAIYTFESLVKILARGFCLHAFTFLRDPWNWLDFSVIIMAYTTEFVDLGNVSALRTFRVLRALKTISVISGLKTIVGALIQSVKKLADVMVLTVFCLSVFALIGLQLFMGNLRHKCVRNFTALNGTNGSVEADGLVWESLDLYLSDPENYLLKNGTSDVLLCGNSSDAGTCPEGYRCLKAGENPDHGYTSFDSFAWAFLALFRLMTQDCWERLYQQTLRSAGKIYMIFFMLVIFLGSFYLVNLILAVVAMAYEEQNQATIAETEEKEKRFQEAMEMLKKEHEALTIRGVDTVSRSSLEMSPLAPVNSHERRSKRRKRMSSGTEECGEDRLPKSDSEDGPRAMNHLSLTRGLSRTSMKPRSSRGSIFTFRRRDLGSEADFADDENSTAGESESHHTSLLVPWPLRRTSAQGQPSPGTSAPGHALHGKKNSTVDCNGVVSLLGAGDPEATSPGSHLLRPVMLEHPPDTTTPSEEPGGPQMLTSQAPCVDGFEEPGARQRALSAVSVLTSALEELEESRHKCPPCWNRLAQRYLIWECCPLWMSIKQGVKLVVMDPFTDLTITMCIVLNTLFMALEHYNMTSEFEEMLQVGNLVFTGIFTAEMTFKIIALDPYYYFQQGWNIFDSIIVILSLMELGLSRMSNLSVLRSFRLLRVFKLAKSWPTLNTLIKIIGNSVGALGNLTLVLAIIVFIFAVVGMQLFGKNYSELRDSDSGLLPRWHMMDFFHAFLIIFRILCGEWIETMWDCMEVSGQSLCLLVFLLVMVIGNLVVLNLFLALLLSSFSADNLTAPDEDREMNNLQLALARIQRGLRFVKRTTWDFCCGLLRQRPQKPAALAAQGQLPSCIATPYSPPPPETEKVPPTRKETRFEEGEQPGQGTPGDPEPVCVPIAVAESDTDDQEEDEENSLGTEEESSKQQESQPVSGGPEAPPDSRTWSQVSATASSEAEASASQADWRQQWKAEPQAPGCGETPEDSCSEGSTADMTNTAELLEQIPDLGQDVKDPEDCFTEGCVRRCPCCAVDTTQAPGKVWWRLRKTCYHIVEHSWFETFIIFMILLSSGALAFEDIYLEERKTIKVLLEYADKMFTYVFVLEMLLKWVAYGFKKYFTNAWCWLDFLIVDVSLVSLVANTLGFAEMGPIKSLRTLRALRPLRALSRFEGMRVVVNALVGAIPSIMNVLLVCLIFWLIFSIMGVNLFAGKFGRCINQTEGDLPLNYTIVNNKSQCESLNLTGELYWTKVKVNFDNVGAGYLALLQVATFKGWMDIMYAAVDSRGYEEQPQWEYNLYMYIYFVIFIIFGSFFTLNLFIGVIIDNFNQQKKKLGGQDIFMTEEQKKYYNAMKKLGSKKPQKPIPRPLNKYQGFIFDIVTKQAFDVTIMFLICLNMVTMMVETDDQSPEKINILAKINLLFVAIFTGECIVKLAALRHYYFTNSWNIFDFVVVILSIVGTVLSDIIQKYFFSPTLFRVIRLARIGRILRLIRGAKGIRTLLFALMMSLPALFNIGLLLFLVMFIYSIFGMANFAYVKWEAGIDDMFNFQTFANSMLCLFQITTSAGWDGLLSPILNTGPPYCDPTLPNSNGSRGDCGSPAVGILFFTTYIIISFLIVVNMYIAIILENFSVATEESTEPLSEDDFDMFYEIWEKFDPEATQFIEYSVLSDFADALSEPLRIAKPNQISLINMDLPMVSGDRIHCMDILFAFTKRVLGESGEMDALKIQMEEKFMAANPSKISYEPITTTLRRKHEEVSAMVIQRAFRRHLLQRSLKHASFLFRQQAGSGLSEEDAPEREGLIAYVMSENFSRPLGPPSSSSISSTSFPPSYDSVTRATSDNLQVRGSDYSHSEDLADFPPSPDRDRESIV

inhibition at 1 µM (hNaV1.1 (SCN1A)) [%] | inhibition at 10 µM (hNaV1.1 (SCN1A)) [%] | Structure (SMILES) | inhibition at 1 µM [1] [%]
21.5 | 82.4 | CC1c2cc(-c3ccc(C(F)(F)F)cc3)ccc2OC(=O)N1Cc1ncccn1 (stereo not drawn) [Example 49, 4-methyl-3-(pyrimidin-2-ylmethyl)-6-(4-(trifluoromethyl)phenyl)-3,4-dihydro-2H-benzo[e][1,3]oxazin-2-one] | 41.5
42.6 | 91.6 | O=C1Oc2ccc(-c3ccc(OC(F)(F)F)cc3)cc2CN1Cc1ncccn1 [Example 3, 3-(pyrimidin-2-ylmethyl)-6-(4-(trifluoromethoxy)phenyl)-3,4-dihydro-2H-benzo[e][1,3]oxazin-2-one] | 51.8
49.9 | 76.5 | O=C1Oc2ccc(-c3ccc(C(F)(F)F)cc3)cc2CN1Cc1ncccn1 [Example 4, 3-(pyrimidin-2-ylmethyl)-6-(4-(trifluoromethyl)phenyl)-3,4-dihydro-2H-benzo[e][1,3]oxazin-2-one] | 53.9

Continued, compound first:

Structure (SMILES) | inhibition at 1 µM (hNaV1.1 (SCN1A)) [%] | inhibition at 10 µM (hNaV1.1 (SCN1A)) [%] | inhibition at 1 µM [1] [%]
CC1c2cc(-c3cccc(Oc4ccccc4)c3)ccc2OC(=O)N1Cc1ncccn1 (stereo not drawn) [Example 51, 4-methyl-6-(3-phenoxyphenyl)-3-(pyrimidin-2-ylmethyl)-3,4-dihydro-2H-benzo[e][1,3]oxazin-2-one] |  |  | 41.6
O=C1Oc2cc3c(cc2CN1Cc1ncccn1)-c1ccc(OC(F)(F)F)cc1C3 [Example 60, 3-(pyrimidin-2-ylmethyl)-8-(trifluoromethoxy)-3,4-dihydrofluoreno[3,2-e][1,3]oxazin-2(10H)-one] |  |  | 11.2
Cc1nccc(CN2Cc3cc(-c4ccc(OC(F)(F)F)cc4)ccc3OC2=O)n1 [Example 15, 3-((2-methylpyrimidin-4-yl)methyl)-6-(4-(trifluoromethoxy)phenyl)-3,4-dihydro-2H-benzo[e][1,3]oxazin-2-one] |  |  | 30
